Assay results taken from publication PMC8448819, “The Arabidopsis MIK2 receptor elicits immunity by sensing a conserved signature from phytocytokines and microbes” (Nature Communications, 2021).

Legend:
[1] = system: mik2-like, rlk7, pepr1,2, hae/hsl2 and fls2 mutant seedlings; assay: Root growth assay, other receptor kinase mutants; format: in vivo, Arabidopsis thaliana; conditions: Supplementary Fig. 4c
Excerpt: The Arabidopsis thaliana accession Columbia-0 (Col-0) was used as wild type (WT). T-DNA insertion mutants of mik2-1 (SALK_061769), mik2-2 (SALK_046987), mik2-like (SALK_112341), and rlk7-3 (SALK_120595) were obtained from the Nottingham Arabidopsis Stock Centre (NASC). The fls2 (SALK_141277), bak1-4, bik1-1/pbl1-1, bak1-5/serk4-1, rbohd mutants, and the transgenic line expressing p35S::GFP have been reported previously[19],[62],[63]. The hae/hsl2 mutant was kindly provided by Dr. Reidunn B. Aalen (University of Oslo, Norway), the pepr1-2/pepr2-2 (pepr1,2) mutant by Dr. Zhi Qi (Inner Mongolia University, China), the scoop12 mutant by Dr. Sébastien Aubourg (INRA, France), a transgenic line expressing p35S::Aequorin by Dr. Marc Knight (Durham University, UK), transgenic line expressing pMYB51::GUS by Dr. Frederick M. Ausubel (Harvard Medical School, USA). […]
Cold stratified seeds were surface-sterilized with 70% (v/v) ethanol for 5 min and were sown on ½MS plates with or without peptides at indicated concentrations. Ten-day-old seedlings grown on plates vertically in a growth chamber were photographed, and the root lengths of seedlings were measured using Image J (http://rsb.info.nih.gov/ij/).

Arabidopsis leaf disks = assay: Ethylene production; format: in vivo, Arabidopsis thaliana; conditions: Fig. 2j, leaf disks of 4-week-old plants, peptides at 1 µM, 23 °C, 4 h, GC-FID
Procedure: Twelve leaves of 4-week-old plants grown on soil were excised into leaf disks of 0.25 cm^2, followed by overnight incubation in a 25 mL glass vial with 2 mL of ddH2O for recovery. Then, ddH2O was replaced by 1 mL of peptides at 1 µM, and the vials were capped immediately with a rubber stopper and incubated at 23 °C with gentle agitation for 4 h. One mL of the vial headspace was injected into a TRACE^TM 1310 Gas Chromatograph (Thermo Fisher Scientific) with FID supported by Chromeleon 7 for quantitation.

[2] = system: MYB51 promoter, pMYB51::GUS seedling roots; assay: Histochemical GUS staining, pMYB51::GUS; format: in vivo, Arabidopsis thaliana; conditions: pMYB51::GUS seedlings, 1 µM, 3 h
Excerpt: Stained samples were fixed with a 3:1 ethanol:acetic acid solution overnight and cleared by lactic acid and photographed with the Olympus SZX10 stereoscopic microscope equipped with DP27 camera.

[3] = system: RLK7^ECD-MIK2^TK/rlk7 and RLK7/rlk7 transgenic seedlings; assay: ROS assay (luminol), RLK7/rlk7 and RLK7^ECD-MIK2^TK/rlk7 seedlings; format: in vivo, Arabidopsis thaliana; conditions: for ROS production, total: Fig. 1d
Procedure: ROS burst was determined by a luminol-based assay. […] Then, ddH2O was replaced by 200 µL of reaction solution containing 50 µM of luminol, and 10 µg/mL of horseradish peroxidase (Sigma-Aldrich) supplemented with or without 100 nM or 1 μM peptide. Luminescence was measured immediately after adding the solution with a luminometer (Glomax 20/20n, Promega) with a one-second interval for 15 min. The total values of ROS production were indicated as means of the relative light units (RLUs).

[4] = system: gene expression, WT Col-0 seedlings; assay: RNA-Seq, WT Col-0; format: in vivo, Arabidopsis thaliana; conditions: for gene expression fold change: WT, 1 μM PIP1 vs Ctrl, 1 h
Procedure: Seedlings were then treated with or without 1 μM PIP1 or SCOOP12 for 1 or 6 h and harvested for RNA isolation. Total RNAs (5 μg) from two biological replicates were pooled for cDNA library construction. cDNA library preparation and sequencing were carried out on an Illumina HiSeq 4000 platform with 150-nucleotide pair-end reads in LC-BIO (Hangzhou, China). Total reads were mapped to the Arabidopsis genome (TAIR10; www.arabidopsis.org) with Hisat, and the read counts for every gene were generated with StringTie. The expression levels of genes were calculated by quantifying the cDNA fragments per kilobase of transcript per million fragments mapped (FPKM). Differentially expressed genes (DEGs) between different treatments were defined by fold change of read counts at 1 and 6 h compared to that at 0 h (differential expression analysis using edgeR, fold change ≥ 2 with p-value ≤ 0.01). DEGs were listed in Supplementary Data 2.

[5] = system: Arabidopsis WT (Col-0) seedlings; conditions: RLK7 activation by PIP1; cited from earlier work
Excerpt: (§1) Plant plasma membrane-resident RKs perceive diverse exogenous and endogenous signals via the extracellular domain and activate intracellular responses through the cytoplasmic kinase domain[1]–[3]. The chimeric receptors with the swapped extracellular and intracellular domains between different RKs have been used to study the specificity of signal perception and signaling activation[48]–[52]. The extracellular domains of RKs determine the ligand-binding specificity[50],[51],[53]. The intracellular kinase domains of different RKs also trigger specific responses. For example, the chimeric rec ...

Arabidopsis WT seedlings = conditions: RLK7 activation by PIP1; cited from earlier work
Excerpt: as §1

## PNGDIFTGPSGSGHGGGR [SCOOP10B, synthesized SCOOP peptide corresponding to the SxS motif]
[1]; fls2, root growth
  response of fls2: responded to SCOOP10^B similarly to WT plants
[1]; root growth
  response of MIK2L, RLK7, PEPR1, PEPR2, HAE and HSL2 mutants: not involved in responsiveness to SCOOP10^B
Arabidopsis leaf disks; repeat 1
  ethylene production: 2.0449 ppm
Arabidopsis leaf disks; repeat 2
  ethylene production: 1.4942 ppm
Arabidopsis leaf disks; repeat 3
  ethylene production: 1.8726 ppm
[2]
  MYB51 promoter activity in roots: induced the promoter activities of MYB51

## RLASGP(OH)SPRGRGH [PIP1, secreted peptide, ligand of RLK7]
[3]; RLK7/rlk7 L4, 100 nM PIP1, one-week-old seedlings, repeat 1
  ROS production, total: 239291 RLU
[3]; RLK7/rlk7 L4, 100 nM PIP1, one-week-old seedlings, repeat 2
  ROS production, total: 252204 RLU
[3]; RLK7/rlk7 L4, 100 nM PIP1, one-week-old seedlings, repeat 3
  ROS production, total: 283681 RLU
[3]; RLK7/rlk7 L4, 100 nM PIP1, one-week-old seedlings, repeat 4
  ROS production, total: 318922 RLU
[3]; RLK7/rlk7 L5, 100 nM PIP1, one-week-old seedlings, repeat 1
  ROS production, total: 275783 RLU
[3]; RLK7/rlk7 L5, 100 nM PIP1, one-week-old seedlings, repeat 2
  ROS production, total: 220663 RLU
[3]; RLK7/rlk7 L5, 100 nM PIP1, one-week-old seedlings, repeat 3
  ROS production, total: 252086 RLU
[3]; RLK7/rlk7 L5, 100 nM PIP1, one-week-old seedlings, repeat 4
  ROS production, total: 358908 RLU
[3]; RLK7ECD-MIK2TK/rlk7 L9, 100 nM PIP1, one-week-old seedlings, repeat 1
  ROS production, total: 1753777 RLU
[3]; RLK7ECD-MIK2TK/rlk7 L9, 100 nM PIP1, one-week-old seedlings, repeat 2
  ROS production, total: 1827311 RLU
[3]; RLK7ECD-MIK2TK/rlk7 L9, 100 nM PIP1, one-week-old seedlings, repeat 3
  ROS production, total: 2926668 RLU
[3]; RLK7ECD-MIK2TK/rlk7 L9, 100 nM PIP1, one-week-old seedlings, repeat 4
  ROS production, total: 3467034 RLU
[3]; RLK7ECD-MIK2TK/rlk7 L9, 100 nM PIP1, one-week-old seedlings, repeat 5
  ROS production, total: 1491639 RLU
[3]; RLK7ECD-MIK2TK/rlk7 L16, 100 nM PIP1, one-week-old seedlings, repeat 1
  ROS production, total: 3868648 RLU
[3]; RLK7ECD-MIK2TK/rlk7 L16, 100 nM PIP1, one-week-old seedlings, repeat 2
  ROS production, total: 1259772 RLU
[3]; RLK7ECD-MIK2TK/rlk7 L16, 100 nM PIP1, one-week-old seedlings, repeat 3
  ROS production, total: 2844613 RLU
[3]; RLK7ECD-MIK2TK/rlk7 L16, 100 nM PIP1, one-week-old seedlings, repeat 4
  ROS production, total: 3037378 RLU
[3]; RLK7ECD-MIK2TK/rlk7 L16, 100 nM PIP1, one-week-old seedlings, repeat 5
  ROS production, total: 940879 RLU
[3]; RLK7/rlk7, 100 nM PIP1
  ROS production: weakly induced ROS production
[3]; RLK7^ECD-MIK2^TK/rlk7, 100 nM PIP1
  ROS production: robust production of ROS
[4]; 746 out of 1205 genes of PIP1-treated RLK7^ECD-MIK2^TK/rlk7
  overlap of MIK2 kinase domain-upregulated genes with PIP1-upregulated genes in WT: 61.9%
[4]; WT seedlings
  expression of SCOOP genes: not in WT plants
[4]; gene AT1G56242
  gene expression fold change: 13807.76
[4]; gene AT1G69920
  gene expression fold change: 473.83
[4]; gene AT3G60120
  gene expression fold change: 45141.52
[5]
  root growth: moderately inhibits root growth
Arabidopsis WT seedlings
  ROS production: weakly induces ROS production
